Measurements reported in ChEMBL document CHEMBL4184109, “Design, synthesis, and structure-activity relationship studies of novel tetrazole antifungal agents with potent activity, broad antifungal spectrum and high selectivity” (Bioorg Med Chem Lett, 2018).
Converted amounts (≈) assume the structure as drawn.

What was measured:
[1] = test system: Candida albicans; assay: Antifungal activity against Candida albicans SC5314 after 24 hrs by serial dilution method; type: functional; settings: SC5314, 24 h
[2] = test system: Cryptococcus neoformans; assay: Antifungal activity against Cryptococcus neoformans after 72 hrs by serial dilution method; type: functional
[3] = target: Cytochrome P450 2C19 (Homo sapiens, UniProt P33261); assay: Inhibition of CYP2C19 in human liver microsomes using mephenytoin as substrate preincubated for 10 mins with substrate followed by NADPH addition measured after 15 mins by LC/MS/MS analysis; type: ADME
Chain of Cytochrome P450 2C19 (P33261 whole entry): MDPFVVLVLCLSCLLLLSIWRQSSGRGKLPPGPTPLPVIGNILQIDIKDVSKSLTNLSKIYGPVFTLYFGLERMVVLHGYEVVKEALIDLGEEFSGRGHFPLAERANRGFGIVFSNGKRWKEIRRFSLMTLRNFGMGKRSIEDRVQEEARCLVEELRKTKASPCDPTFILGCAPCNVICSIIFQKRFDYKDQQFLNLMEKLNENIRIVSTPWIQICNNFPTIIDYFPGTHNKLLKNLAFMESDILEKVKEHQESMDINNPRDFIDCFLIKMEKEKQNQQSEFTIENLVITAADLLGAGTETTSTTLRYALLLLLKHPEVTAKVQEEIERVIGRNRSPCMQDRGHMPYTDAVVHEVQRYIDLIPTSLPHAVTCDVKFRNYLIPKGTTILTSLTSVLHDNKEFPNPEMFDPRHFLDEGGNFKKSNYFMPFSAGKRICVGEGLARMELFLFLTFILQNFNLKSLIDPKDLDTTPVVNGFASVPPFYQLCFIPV

[4] = test system: Aspergillus fumigatus; assay: Antifungal activity against Aspergillus fumigatus after 48 hrs by serial dilution method; type: functional
[5] = test system: Candida parapsilosis; assay: Antifungal activity against Candida parapsilosis ATCC 22019 after 24 hrs by serial dilution method; type: functional; settings: Lodderomyces parapsilosis, ATCC 22019, 24 h
[6] = target: T1, Cytochrome P450 1A2 (Homo sapiens, UniProt P05177); assay: Inhibition of CYP1A2 in human liver microsomes using phenacetin as substrate preincubated for 10 mins with substrate followed by NADPH addition measured after 15 mins by LC/MS/MS analysis; type: ADME
T1 sequence (P05177 whole entry): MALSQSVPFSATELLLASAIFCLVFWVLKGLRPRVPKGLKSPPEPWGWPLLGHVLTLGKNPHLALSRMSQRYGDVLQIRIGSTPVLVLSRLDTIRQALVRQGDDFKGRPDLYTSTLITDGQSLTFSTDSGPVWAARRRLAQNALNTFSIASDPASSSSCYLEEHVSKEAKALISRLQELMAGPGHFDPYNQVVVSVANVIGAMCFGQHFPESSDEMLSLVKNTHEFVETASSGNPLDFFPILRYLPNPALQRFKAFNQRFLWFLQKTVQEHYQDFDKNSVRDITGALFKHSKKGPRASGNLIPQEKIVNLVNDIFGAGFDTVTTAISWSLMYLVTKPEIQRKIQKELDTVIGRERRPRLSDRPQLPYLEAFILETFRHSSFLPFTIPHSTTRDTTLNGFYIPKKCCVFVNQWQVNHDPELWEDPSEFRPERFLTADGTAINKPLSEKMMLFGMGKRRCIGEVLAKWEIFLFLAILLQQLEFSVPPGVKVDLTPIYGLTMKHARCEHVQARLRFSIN

[7] = target: Cytochrome P450 2C9 (Homo sapiens, UniProt P11712); assay: Inhibition of CYP2C9 in human liver microsomes using tolbutamide as substrate preincubated for 10 mins with substrate followed by NADPH addition measured after 15 mins by LC/MS/MS analysis; type: ADME
Chain of Cytochrome P450 2C9 (P11712 whole entry): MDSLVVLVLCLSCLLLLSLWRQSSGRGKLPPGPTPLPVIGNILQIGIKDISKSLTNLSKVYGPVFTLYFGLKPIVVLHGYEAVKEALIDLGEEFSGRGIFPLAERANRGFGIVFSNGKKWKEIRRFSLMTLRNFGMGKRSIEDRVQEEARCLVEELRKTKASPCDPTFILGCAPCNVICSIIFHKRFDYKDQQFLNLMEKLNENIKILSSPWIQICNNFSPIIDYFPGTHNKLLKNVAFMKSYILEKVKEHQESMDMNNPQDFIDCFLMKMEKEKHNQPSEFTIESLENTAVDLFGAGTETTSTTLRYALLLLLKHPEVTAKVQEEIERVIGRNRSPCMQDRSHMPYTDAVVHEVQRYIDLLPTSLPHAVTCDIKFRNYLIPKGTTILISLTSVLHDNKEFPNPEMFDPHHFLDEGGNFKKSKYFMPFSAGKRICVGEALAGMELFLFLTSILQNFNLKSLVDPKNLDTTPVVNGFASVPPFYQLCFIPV

[8] = test system: Nakaseomyces glabratus; assay: Antifungal activity against Candida glabrata after 24 hrs by serial dilution method; type: functional
[9] = target: Cytochrome P450 2D6 (Homo sapiens, UniProt P10635); assay: Inhibition of CYP2D6 in human liver microsomes using dextromethorphan as substrate preincubated for 10 mins with substrate followed by NADPH addition measured after 15 mins by LC/MS/MS analysis; type: ADME
Chain of Cytochrome P450 2D6 (P10635 whole entry): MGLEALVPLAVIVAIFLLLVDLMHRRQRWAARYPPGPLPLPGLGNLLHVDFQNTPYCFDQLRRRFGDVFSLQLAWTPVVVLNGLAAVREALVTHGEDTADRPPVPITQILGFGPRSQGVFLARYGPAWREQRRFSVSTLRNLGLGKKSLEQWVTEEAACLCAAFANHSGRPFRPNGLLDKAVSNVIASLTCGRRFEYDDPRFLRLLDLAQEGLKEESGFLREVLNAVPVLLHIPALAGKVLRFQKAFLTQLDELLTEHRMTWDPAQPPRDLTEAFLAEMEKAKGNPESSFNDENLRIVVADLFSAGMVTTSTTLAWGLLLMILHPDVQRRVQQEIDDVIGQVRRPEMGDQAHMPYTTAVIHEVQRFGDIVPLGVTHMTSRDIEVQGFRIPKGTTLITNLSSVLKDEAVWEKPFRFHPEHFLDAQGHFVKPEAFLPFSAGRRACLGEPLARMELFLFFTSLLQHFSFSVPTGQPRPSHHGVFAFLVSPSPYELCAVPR

[10] = test system: Nannizzia gypsea; assay: Antifungal activity against Microsporum gypseum by serial dilution method; type: functional
[11] = test system: Candida albicans; assay: Antifungal activity against Candida albicans Y0109 after 24 hrs by serial dilution method; type: functional; settings: Y0109, 24 h
[12] = test system: Trichophyton rubrum; assay: Antifungal activity against Trichophyton rubrum by serial dilution method; type: functional
[13] = test system: Cryptococcus neoformans; assay: Potency index, ratio of VT-1161 MIC80 to compound MIC80 for Cryptococcus neoformans; type: functional
[14] = test system: Candida albicans; assay: Potency index, ratio of VT-1161 MIC80 to compound MIC80 for Candida albicans Y0109; type: functional
[15] = test system: Trichophyton rubrum; assay: Potency index, ratio of VT-1161 MIC80 to compound MIC80 for Trichophyton rubrum; type: functional
[16] = test system: Nakaseomyces glabratus; assay: Potency index, ratio of VT-1161 MIC80 to compound MIC80 for Candida glabrata; type: functional
[17] = test system: Nannizzia gypsea; assay: Potency index, ratio of VT-1161 MIC80 to compound MIC80 for Microsporum gypseum; type: functional
[18] = test system: Candida albicans; assay: Potency index, ratio of VT-1161 MIC80 to compound MIC80 for Candida albicans SC5314; type: functional
[19] = test system: Candida parapsilosis; assay: Potency index, ratio of VT-1161 MIC80 to compound MIC80 for Candida parapsilosis ATCC 22019; type: functional

| Compound | MIC80 [1] [µg/mL] | MIC80 [2] [µg/mL] | IC50 [3] [µM] | MIC80 [4] [µg/mL] | MIC80 [5] [µg/mL] | IC50 [6] [µM] | IC50 [7] [µM] | MIC80 [8] [µg/mL] | IC50 [9] [µM] | MIC80 [10] [µg/mL] | MIC80 [11] [µg/mL] | MIC80 [12] [µg/mL] | Ratio [13] | Ratio [14] | Ratio [15] | Ratio [16] | Ratio [17] | Ratio [18] | Ratio [19] |
| --- | --- | --- | --- | --- | --- | --- | --- | --- | --- | --- | --- | --- | --- | --- | --- | --- | --- | --- | --- |
| CC(C)(C)Cn1ncn(-c2ccc(C(F)(F)C(O)(Cn3cnnn3)c3ccc(F)cc3F)nc2)c1=O (stereo not drawn) | 0.5 (≈ 0.987 µM) | 0.5 (≈ 0.987 µM) | 20 | > 64 | 0.5 (≈ 0.987 µM) | 25 | 25 | 1 (≈ 1.97 µM) | 7.7 | 4 (≈ 7.9 µM) | 0.25 (≈ 0.494 µM) | 2 (≈ 3.95 µM) | 2 - 4 | 2 - 4 | 2 - 4 | 2 - 4 | 2 - 4 | 2 - 4 | 2 - 4 |
| O=c1n(-c2ccc(C(F)(F)C(O)(Cn3cnnn3)c3ccc(F)cc3F)nc2)cnn1C1CCCCCCC1 (stereo not drawn) | 2 (≈ 3.66 µM) | 2 (≈ 3.66 µM) | – | > 64 | 2 (≈ 3.66 µM) | – | – | 4 (≈ 7.32 µM) | – | > 64 | 1 (≈ 1.83 µM) | 1 (≈ 1.83 µM) | – | – | – | – | – | – | – |
| O=c1n(-c2ccc(C(F)(F)C(O)(Cn3cnnn3)c3ccc(F)cc3F)nc2)cnn1C1CCCC1 (stereo not drawn) | 0.25 (≈ 0.496 µM) | 1 (≈ 1.98 µM) | 17 | > 8 | 0.125 (≈ 0.248 µM) | 22.6 | 11.9 | 2 (≈ 3.96 µM) | 10.8 | 16 (≈ 31.7 µM) | 0.25 (≈ 0.496 µM) | 4 (≈ 7.93 µM) | – | – | – | – | – | – | – |

Second part, led by results:

| MIC80 [1] [µg/mL] | MIC80 [2] [µg/mL] | IC50 [3] [µM] | MIC80 [4] [µg/mL] | MIC80 [5] [µg/mL] | IC50 [6] [µM] | IC50 [7] [µM] | MIC80 [8] [µg/mL] | IC50 [9] [µM] | MIC80 [10] [µg/mL] | MIC80 [11] [µg/mL] | MIC80 [12] [µg/mL] | Compound | Ratio [13] | Ratio [14] | Ratio [15] | Ratio [16] | Ratio [17] | Ratio [18] | Ratio [19] |
| --- | --- | --- | --- | --- | --- | --- | --- | --- | --- | --- | --- | --- | --- | --- | --- | --- | --- | --- | --- |
| 0.25 (≈ 0.482 µM) | 0.125 (≈ 0.241 µM) | 14.6 | > 64 | 0.25 (≈ 0.482 µM) | 14.5 | 16.5 | 0.25 (≈ 0.482 µM) | 21.1 | 4 (≈ 7.71 µM) | 0.25 (≈ 0.482 µM) | 2 (≈ 3.86 µM) | O=c1n(-c2ccc(C(F)(F)C(O)(Cn3cnnn3)c3ccc(F)cc3F)nc2)cnn1C1CCCCC1 (stereo not drawn) | – | – | – | – | – | – | – |
| 1 (≈ 1.9 µM) | 1 (≈ 1.9 µM) | 8.5 | > 8 | 0.5 (≈ 0.948 µM) | 28.9 | 11.5 | 2 (≈ 3.79 µM) | 8.7 | 8 (≈ 15.2 µM) | 1 (≈ 1.9 µM) | 2 (≈ 3.79 µM) | OC(Cn1cnnn1)(c1ccc(F)cc1F)C(F)(F)c1ccc(-c2ccc(OCC(F)(F)F)cc2)cn1 (racemic) | – | – | – | – | – | – | – |
